# Experimental data reported in US8354387B2, “Methods and compositions for delivering siRNA into mammalian cells” (Centre National de la Recherche Scientifique, priority 2004, dated 2013).
# Test system: human fibroblasts (Hs68)
# Experiment: pRL-SV40 plasmid transfection of synchronized or arrested cells (luciferase activity)
# Type: cell-based
# Conditions: for luciferase activity in serum-starved, arrested cells in comparison with dividing cells: 24 hrs after transfection; for transfection efficiency after 24 hrs, relative to expression after 48 hrs: synchronized Hs68, pRL-SV40, 24 hrs
# Experimental: FIG. 2: The NLS of MPG is essential for nuclear translocation: A/ Purified GST-importin α and β were coupled onto GST Sepharose resin and incubated in batch with MPG/DNA or MPG^ΔNLS/DNA complexes for 1 hr, extensively washed and incubated with […] glutathione to elute the complexes. DNA was then extracted and analyzed by agarose gel electrophoresis (0.8%). […] B/ Delivery of pRL-SV40 plasmid: MPG/DNA (black boxes) or MPG^ΔNLS/DNA (grey boxes) complexes formed at a charge ratio of 5/1 with 100 ng pRL-SV40 plasmid encoding the reporter gene luciferase were overlaid onto synchronized or arrested (-FCS) human fibroblasts (Hs68). Luciferase activity was monitored 12 hrs and 24 hrs after release from synchrony, or after 24 hrs for arrested cells and 48 hrs for asynchronous cells. Control transfections were performed with Lipofectamine™ (white boxes) or naked plasmid (dashed boxes).
# Hs68, Cos-7 and HeLa cell lines were cultured in Dulbecco's Modified Eagle's Medium supplemented with 2 mM glutamine, 1% antibiotics (streptomycin 10 000 μg/ml, penicillin, 10,000 IU/ml) and 10% (w/v) fetal calf serum (FCS) at 37° C. in a humidified atmosphere containing 5% CO2 as described previously (18). For MPG or MPG^ΔNLS-mediated gene delivery, peptide carrier/DNA complexes were formed in DMEM or PBS (500 μl of DMEM containing 100 ng of DNA complexed with MPG at a charge ratio 5:1) and incubated for 30 min at 37° C. Cells grown to 60% confluence were then overlaid with these preformed complexes. After 30 min incubation at 37° C., 1 ml of fresh DMEM supplemented with 10% fetal calf serum was added to the cells, without removing the overlay of carrier/DNA, and cells were returned to the incubator.
# For cell cycle-dependent studies, Hs68 fibroblasts were synchronized by serum deprivation for 40 hrs, then restimulated to enter the cycle and grow into early G1 for 4 hrs by addition of fresh DMEM supplemented with 20% FCS, and incubated in the presence of MPG/DNA complexes as described above. Luciferase activity was monitored as described previously (19) and control transfection experiments were performed using Lipofectamine™. When transfected at 4° C., cells were incubated for 1 hour at 4° C. prior to transfection, then incubated with MPG/DNA complexes for another 2 hours at 4° C., extensively washed and finally returned to incubation at 37° C. in fresh medium supplemented with serum. When transfections were performed in the presence of bafilomycin A ([…]), cytochalasin B (50 μg/ml) or chloroquine (100 μM), cells were preincubated with these inhibitors of endocytosis for 1 hour prior to transfection.
# In order to study the impact of the NLS of MPG on nuclear translocation of plasmids, transfection experiments were performed on synchronized or growth-arrested cells with either MPG or its NLS mutant. Cells were synchronized in G0 by serum starvation then released back into the cell cycle by addition of serum. 4 hours after release, cells were transfected with MPG/DNA or MPG^ΔNLS/DNA complexes and transgene expression was monitored 12 hours later, when most of the cells were in late G1, and […] later, in late G2 prior to mitosis. Data were normalized with luciferase activity obtained 48 hours after transfection, and compared with asynchronous cells. […] After 24 hrs, transfection efficiency reached 70%. In contrast, when transfection was performed with MPG^ΔNLS (SEQ ID NO:3), luciferase activity was negligible after 12 hrs (7%), and only reached 26% after 24 hrs. […]
sequence,measurement,setting,value
"GALFLGFLGAAGSTMGAWSQPKSKRKV (carrier peptide) [MPG^ΔNLS, MPG variant with single mutation of the second lysine residue in the NLS motif to serine]","luciferase activity in serum-starved, arrested cells in comparison with dividing cells",,no transfection was observed
same,"luciferase expression after 12 hrs, relative to expression after 48 hrs","synchronized Hs68, pRL-SV40, 12 hrs",7%
same,"transfection efficiency after 24 hrs, relative to expression after 48 hrs",,26%
"GALFLGFLGAAGSTMGAWSQPKKKRKV (carrier peptide) [MPG, bipartite amphipathic peptide derived from fusion peptide domain of HIV-1 gp41 and NLS of SV40 large T antigen]","luciferase activity in serum-starved, arrested cells in comparison with dividing cells",,50%
same,"transfection efficiency after 24 hrs, relative to expression after 48 hrs",,70%
